Legend:
Assay in all cases: Test D controlled growth environment herbicide test, pre- and postemergence
Format in all cases: in vivo
[1] = test system: ryegrass, Italian (Italian ryegrass, Lolium multiflorum)
Outline: (§1)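 Rating is visual, 0–100 scale (100 = complete control), made against untreated plants 14–21 d after treatment in controlled growth conditions. Postemergence sprays went onto 1- to 4-leaf plants in peat medium; preemergence sprays onto silt loam after sowing; formulation included a surfactant.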

[2] = test system: wheat, winter (winter wheat, Triticum aestivum)
Outline: as §1

[3] = test system: bromegrass, downy (downy bromegrass, Bromus tectorum)
Outline: as §1

[4] = test system: windgrass (Apera spica-venti)
Outline: as §1

[5] = test system: lambsquarters (Chenopodium album)
Outline: as §1

[6] = test system: deadnettle (henbit deadnettle, Lamium amplexicaule)
Outline: as §1

[7] = test system: chickweed (common chickweed, Stellaria media)
Outline: as §1

[8] = test system: foxtail, green (green foxtail, Setaria viridis)
Outline: as §1

[9] = test system: canarygrass (Phalaris minor)
Outline: as §1

[10] = test system: oilseed rape (Brassica napus)
Outline: as §1

[11] = test system: chamomile (scentless chamomile, Matricaria inodora)
Outline: as §1

[12] = test system: buckwheat, wild (wild buckwheat, Polygonum convolvulus)
Outline: as §1

[13] = test system: field violet (Viola arvensis)
Outline: as §1

[14] = test system: galium (catchweed bedstraw, Galium aparine)
Outline: as §1

[15] = Postemergence, 31 g ai/ha, scale 0 to 100 (0 no effect, 100 complete control)
[16] = Postemergence, 125 g ai/ha, visual rating on scale 0 (no effect) to 100 (complete control), 14 to 21 d
[17] = Postemergence, 250 g ai/ha, scale 0 to 100 (0 no effect, 100 complete control)
[18] = Preemergence, 62 g ai/ha, scale 0 to 100 (0 no effect, 100 complete control)
[19] = Preemergence, 125 g ai/ha, scale 0 to 100 (0 no effect, 100 complete control)
[20] = Preemergence, 250 g ai/ha, scale 0 to 100, 0 no effect, 100 complete control
[21] = postemergence, 62 g ai/ha, scale 0 to 100, 0 no effect, 100 complete control

Cc1ccc2sc(Br)c(-c3c(O)c(C)nn(C)c3=O)c2c1 [Compound 79]
Ryegrass, Italian plant response rating [1, 15]: 70 | Plant response rating, Ryegrass, Italian [1, 16]: 85 | Plant response rating, Ryegrass, Italian [1, 17]: 90 | Plant response rating (scale of 0 to 100), Ryegrass, Italian ([1]; Preemergence, 31 g ai/ha): 80 | Plant response rating, Ryegrass, Italian [1, 18]: 85 | Plant response rating, Ryegrass, Italian [1, 19]: 90 | Plant response rating, Ryegrass, Italian [1, 20]: 100 | Plant response rating, Ryegrass, Italian [1, 21]: 75 | Wheat, Winter plant response rating [2, 15]: 0 | Plant response rating, Wheat, Winter [2, 16]: 0 | Plant response rating, Wheat, Winter [2, 17]: 0 | Plant response rating (scale of 0 to 100), Wheat, Winter ([2]; Preemergence, 31 g ai/ha): 0 | Plant response rating, Wheat, Winter [2, 18]: 0 | Plant response rating, Wheat, Winter [2, 19]: 0 | Plant response rating, Wheat, Winter [2, 20]: 0 | Plant response rating, Wheat, Winter [2, 21]: 0 | Bromegrass, Downy plant response rating [3, 15]: 5 | Plant response rating, Bromegrass, Downy [3, 16]: 10 | Plant response rating, Bromegrass, Downy [3, 17]: 20 | Plant response rating (scale of 0 to 100), Bromegrass, Downy ([3]; Preemergence, 31 g ai/ha): 35 | Plant response rating, Bromegrass, Downy [3, 18]: 35 | Plant response rating, Bromegrass, Downy [3, 19]: 50 | Plant response rating, Bromegrass, Downy [3, 20]: 60 | Plant response rating, Bromegrass, Downy [3, 21]: 5 | Windgrass plant response rating [4, 15]: 15 | Plant response rating, Windgrass [4, 16]: 35 | Plant response rating, Windgrass [4, 17]: 65 | Plant response rating (scale of 0 to 100), Windgrass ([4]; Preemergence, 31 g ai/ha): 25 | Plant response rating, Windgrass [4, 18]: 40 | Plant response rating, Windgrass [4, 19]: 50 | Plant response rating, Windgrass [4, 20]: 80 | Plant response rating, Windgrass [4, 21]: 20 | Lambsquarters plant response rating [5, 15]: 85 | Plant response rating, Lambsquarters [5, 16]: 90 | Plant response rating, Lambsquarters [5, 17]: 100 | Plant response rating (scale of 0 to 100), Lambsquarters ([5]; Preemergence, 31 g ai/ha): 100 | Plant response rating, Lambsquarters [5, 18]: 100 | Plant response rating, Lambsquarters [5, 19]: 100 | Plant response rating, Lambsquarters [5, 20]: 100 | Plant response rating, Lambsquarters [5, 21]: 80 | Deadnettle plant response rating [6, 15]: 5 | Plant response rating, Deadnettle [6, 16]: 20 | Plant response rating, Deadnettle [6, 17]: 40 | Plant response rating (scale of 0 to 100), Deadnettle ([6]; Preemergence, 31 g ai/ha): 0 | Plant response rating, Deadnettle [6, 18]: 10 | Plant response rating, Deadnettle [6, 19]: 100 | Plant response rating, Deadnettle [6, 20]: 90 | Plant response rating, Deadnettle [6, 21]: 15 | Chickweed plant response rating [7, 15]: 95 | Plant response rating, Chickweed [7, 16]: 100 | Plant response rating, Chickweed [7, 17]: 100 | Plant response rating (scale of 0 to 100), Chickweed ([7]; Preemergence, 31 g ai/ha): 100 | Plant response rating, Chickweed [7, 18]: 100 | Plant response rating, Chickweed [7, 19]: 100 | Plant response rating, Chickweed [7, 20]: 100 | Plant response rating, Chickweed [7, 21]: 95 | Foxtail, Green plant response rating [8, 15]: 20 | Plant response rating, Foxtail, Green [8, 16]: 75 | Plant response rating, Foxtail, Green [8, 17]: 80 | Plant response rating (scale of 0 to 100), Foxtail, Green ([8]; Preemergence, 31 g ai/ha): 55 | Plant response rating, Foxtail, Green [8, 18]: 60 | Plant response rating, Foxtail, Green [8, 19]: 65 | Plant response rating, Foxtail, Green [8, 20]: 95 | Plant response rating, Foxtail, Green [8, 21]: 70 | Canarygrass plant response rating [9, 15]: 5 | Plant response rating, Canarygrass [9, 16]: 40 | Plant response rating, Canarygrass [9, 17]: 45 | Plant response rating (scale of 0 to 100), Canarygrass ([9]; Preemergence, 31 g ai/ha): 45 | Plant response rating, Canarygrass [9, 18]: 60 | Plant response rating, Canarygrass [9, 19]: 75 | Plant response rating, Canarygrass [9, 20]: 85 | Plant response rating, Canarygrass [9, 21]: 20 | Oilseed Rape plant response rating [10, 15]: 0 | Plant response rating, Oilseed Rape [10, 16]: 20 | Plant response rating, Oilseed Rape [10, 17]: 30 | Plant response rating (scale of 0 to 100), Oilseed Rape ([10]; Preemergence, 31 g ai/ha): 25 | Plant response rating, Oilseed Rape [10, 18]: 35 | Plant response rating, Oilseed Rape [10, 19]: 40 | Plant response rating, Oilseed Rape [10, 20]: 35 | Plant response rating, Oilseed Rape [10, 21]: 5 | Chamomile plant response rating [11, 15]: 85 | Plant response rating, Chamomile [11, 16]: 100 | Plant response rating, Chamomile [11, 17]: 100 | Plant response rating, Chamomile [11, 21]: 95 | Buckwheat, Wild plant response rating [12, 15]: 70 | Plant response rating, Buckwheat, Wild [12, 16]: 100 | Plant response rating, Buckwheat, Wild [12, 17]: 100 | Plant response rating (scale of 0 to 100), Buckwheat, Wild ([12]; Preemergence, 31 g ai/ha): 0 | Plant response rating, Buckwheat, Wild [12, 18]: 90 | Plant response rating, Buckwheat, Wild [12, 19]: 25 | Plant response rating, Buckwheat, Wild [12, 20]: 100 | Plant response rating, Buckwheat, Wild [12, 21]: 100 | Field Violet plant response rating [13, 15]: 75 | Plant response rating, Field Violet [13, 16]: 85 | Plant response rating, Field Violet [13, 17]: 95 | Plant response rating (scale of 0 to 100), Field Violet ([13]; Preemergence, 31 g ai/ha): 80 | Plant response rating, Field Violet [13, 18]: 85 | Plant response rating, Field Violet [13, 19]: 98 | Plant response rating, Field Violet [13, 20]: 100 | Plant response rating, Field Violet [13, 21]: 75 | Galium plant response rating [14, 15]: 95 | Plant response rating, Galium [14, 16]: 100 | Plant response rating, Galium [14, 17]: 100 | Plant response rating (scale of 0 to 100), Galium ([14]; Preemergence, 31 g ai/ha): 80 | Plant response rating, Galium [14, 18]: 90 | Plant response rating, Galium [14, 19]: 100 | Plant response rating, Galium [14, 20]: 100 | Plant response rating, Galium [14, 21]: 100
